These results are taken from patent US12152031B2, “Biodefense agents” (priority 2018, dated 2024).

Common to all, as to format: cell-based
The test system of assay [1] is Enterobacteriaceae.
The test system of assay [2] is E. coli DH10B. Put plainly: microbe, parasite or virus in culture. As to conditions: Escherichia coli.
Assay [3] has as its system P. aeruginosa. In words: microbe, parasite or virus in culture. The settings on record: Pseudomonas aeruginosa, read-out: MICs.
The test system of assay [4] is E. coli DH10B mcr-1 transformant. Put plainly: microbe, parasite or virus in culture. As to conditions: Escherichia coli.

In brackets after ≈: the same amount, converted by molar mass. Some results are limits rather than exact numbers.

As to `CC(=N)NCC[C@@H]1CCC[C@@H](c2ccc(-n3cc4cc(-c5cc(CCC[C@@H](N)CO)cc(Cl)c5F)[nH]c4nc3=O)cc2F)N1` [RX-04C, N-(2-((2S,6S)-6-(4-(6-(5-((R)-4-amino-5-hydroxypentyl)-3-chloro-2-fluorophenyl)-2-oxo-2,7-dihydro-3H-pyrrolo[2,3-d]pyrimidin-3-yl)-2-fluorophenyl)piperidin-2-yl)ethyl)acetimidamide], the “peak of unimodal MIC distribution” value in assay [1] stood at 2 µg/mL. The MIC in assay [2] is 0.5 µg/mL (≈ 0.799 µM); in assay [3] it was ≥ 16 µg/mL; in assay [4], 0.5 µg/mL (≈ 0.799 µM).
